Patent US8524773B2, “Utilization of dialkylfumarates” (Biogen Idec International GmbH, priority 1998, dated 2013)
Structures can show the parent of a compound that is named as a salt.

Legend:
Ehrlich ascites tumour = conditions: mice; cited from earlier work
haemagglutination [1] = assay: in vitro haemagglutination; conditions: compared with cyclosporine
haemagglutination [2] = assay: in vivo haemagglutination; conditions: compared with cyclosporine
[3] = test system: human mononuclear cells of periphere blood (PBMC cells); assay: endotoxin-stimulated TNF-α secretion in PBMC cells; type: cell-based
isolated monocytes = assay: endotoxin-stimulated TNF-α secretion in isolated monocytes; type: cell-based, human

| SMILES | growth of the Ehrlich ascites tumour (Ehrlich ascites tumour) | effect on in vitro haemagglutination (haemagglutination [1]) | effect on in vivo haemagglutination (haemagglutination [2]) | endotoxin-stimulated TNF-α secretion [3] | endotoxin-stimulated TNF-α secretion (isolated monocytes) |
| --- | --- | --- | --- | --- | --- |
| O=C(O)/C=C/C(=O)O [fumaric acid] | inhibits the growth | comparable to that of cyclosporine | comparable to that of cyclosporine |  |  |
| COC(=O)/C=C/C(=O)O [methyl hydrogen fumarate] |  |  |  | initially increases | initially increases |
